The series concerns rodent lifetime carcinogenesis bioassay, tumor incidence TD50. Put plainly: chronic cancer bioassays in animals – CPDB, compiled studies (AID 1745844).
[1] abbreviates: mouse, strain B6C3F1, females, in feed, site: any site (literature study), lesion: several types, types named in the paper, dosed 104 weeks, study length 104 weeks.
[2] abbreviates: mouse, strain B6C3F1, males, in feed, site: any site (literature study), lesion: several types, types named in the paper, dosed 104 weeks, study length 104 weeks.

Data on nine molecules can be found in PubChem BioAssay AID1745844 (Carcinogenic Potency Database (CPDB), 2022).

Values joined by “and” are separate entries in the source; they are usually repeats but may differ in a detail not shown here. Equal values may be shown once. Active and inactive are the calls of the source. How the calls were made is not given here.

The term TD50 denotes the 50% point of the dose-response relation for the toxic effect studied. Consider `CCN(CC)C(=S)S[Te](SC(=S)N(CC)CC)(SC(=S)N(CC)CC)SC(=S)N(CC)CC`, for which the TD50 (mouse, strain B6AKF1, females, oral dosing, site: any site (literature study), lesion: several types, types named in the paper, dosed 76 weeks, study length 76 weeks) is 26.7 mg/kg/day; the TD50 (mouse, strain B6AKF1, females, oral dosing, site: lung, lesion: adenoma, dosed 76 weeks, study length 76 weeks) is 28.2 mg/kg/day; the TD50 (mouse, strain B6AKF1, males, oral dosing, site: any site (literature study), lesion: several types, types named in the paper, dosed 76 weeks, study length 76 weeks) worked out at 31.2 mg/kg/day; the TD50 (mouse, strain B6AKF1, males, oral dosing, site: liver, lesion: hepatoma, dosed 76 weeks, study length 76 weeks) is 55.5 mg/kg/day; the TD50 (mouse, strain B6C3F1, females, in feed, site: any site (literature study), lesion: several types, types named in the paper, dosed 106 weeks, study length 106 weeks) is 1030 mg/kg/day (inactive); the TD50 (mouse, strain B6C3F1, females, in feed, site: liver, lesion: hepatocellular adenoma + hepatocellular carcinoma + neoplastic nodule, dosed 106 weeks, study length 106 weeks) is 2270 mg/kg/day. Besides, the TD50 (mouse, strain B6C3F1, females, in feed, site: lung, lesion: alveolar/bronchiolar adenoma + alveolar/bronchiolar carcinoma, dosed 106 weeks, study length 106 weeks) came out at 3400 mg/kg/day; the TD50 (mouse, strain B6C3F1, females, oral dosing, site: any site (literature study), lesion: several types, types named in the paper, dosed 76 weeks, study length 76 weeks) came out at 63.5 mg/kg/day; the TD50 (mouse, strain B6C3F1, females, oral dosing, site: lung, lesion: adenoma, dosed 76 weeks, study length 76 weeks) came to 131 mg/kg/day; the TD50 (mouse, strain B6C3F1, males, in feed, site: any site (literature study), lesion: several types, types named in the paper, dosed 106 weeks, study length 106 weeks) stood at 902 mg/kg/day; the TD50 (mouse, strain B6C3F1, males, in feed, site: eye, lesion: adenoma, NOS, dosed 106 weeks, study length 106 weeks) was 201 mg/kg/day; the TD50 (mouse, strain B6C3F1, males, in feed, site: lung, lesion: alveolar/bronchiolar adenoma + alveolar/bronchiolar carcinoma, dosed 106 weeks, study length 106 weeks) was 228 mg/kg/day. For the same molecule, the TD50 is, setting by setting: (mouse, strain B6C3F1, males, in feed, site: lung, lesion: alveolar/bronchiolar carcinoma, dosed 106 weeks, study length 106 weeks) 260 mg/kg/day; (mouse, strain B6C3F1, males, oral dosing, site: any site (literature study), lesion: several types, types named in the paper, dosed 76 weeks, study length 76 weeks) 8.41 mg/kg/day; (mouse, strain B6C3F1, males, oral dosing, site: liver, lesion: hepatoma, dosed 76 weeks, study length 76 weeks) 24.2 mg/kg/day; (mouse, strain B6C3F1, males, oral dosing, site: lung, lesion: adenoma, dosed 76 weeks, study length 76 weeks) 108 mg/kg/day; (mouse, strain B6C3F1, males, oral dosing, site: lung, lesion: carcinoma, dosed 76 weeks, study length 76 weeks) 108 mg/kg/day; (mouse, strain B6C3F1, males, oral dosing, site: lung, lesion: several types, types named in the paper, dosed 76 weeks, study length 76 weeks) 52.1 mg/kg/day. For the same molecule, the TD50 is, setting by setting: (rat, strain Fischer 344, females, in feed, site: liver, lesion: hepatocellular adenoma + hepatocellular carcinoma + neoplastic nodule, dosed 105 weeks, study length 105 weeks) 650 mg/kg/day; (rat, strain Fischer 344, females, in feed, site: pituitary gland, lesion: adenoma, NOS, dosed 105 weeks, study length 105 weeks) 12.3 mg/kg/day (inactive); (rat, strain Fischer 344, males, in feed, site: all sites, lesion: mesothelioma, NOS, dosed 105 weeks, study length 105 weeks) 77.6 mg/kg/day; (rat, strain Fischer 344, males, in feed, site: body cavities, lesion: mesothelioma, NOS, dosed 105 weeks, study length 105 weeks) 181 mg/kg/day.

`OCC(O)CO`: the TD50 (rat, strain Long-Evans, both sexes, in feed, site: any site (literature study), lesion: several types, types named in the paper, dosed 105 weeks, study length 105 weeks) is 38300 mg/kg/day (inactive) and 12300 mg/kg/day (inactive).

Consider `Nc1nc(N)c2nc(-c3ccccc3)c(N)nc2n1`, for which the TD50 is, setting by setting: under setting [1], 132 mg/kg/day and 64.4 mg/kg/day; (mouse, strain B6C3F1, females, in feed, site: liver, lesion: hepatocellular adenoma + hepatoblastoma + hepatocellular carcinoma, dosed 104 weeks, study length 104 weeks) 51.3 mg/kg/day and 45.3 mg/kg/day; (mouse, strain B6C3F1, females, in feed, site: liver, lesion: hepatocellular adenoma + hepatocellular carcinoma, dosed 104 weeks, study length 104 weeks) 51.3 mg/kg/day and 45.3 mg/kg/day; (mouse, strain B6C3F1, females, in feed, site: liver, lesion: hepatocellular adenoma, dosed 104 weeks, study length 104 weeks) 46 mg/kg/day and 45.7 mg/kg/day; (mouse, strain B6C3F1, males, in feed, site: Harderian gland, lesion: adenoma, dosed 104 weeks, study length 104 weeks) 235 mg/kg/day; under setting [2], 205 mg/kg/day and 86.7 mg/kg/day. Moreover, the TD50 is, setting by setting: (mouse, strain B6C3F1, males, in feed, site: liver, lesion: hepatocellular adenoma + hepatoblastoma + hepatocellular carcinoma, dosed 104 weeks, study length 104 weeks) 169 mg/kg/day and 61.2 mg/kg/day; (mouse, strain B6C3F1, males, in feed, site: liver, lesion: hepatocellular adenoma + hepatocellular carcinoma, dosed 104 weeks, study length 104 weeks) 162 mg/kg/day and 61.2 mg/kg/day; (mouse, strain B6C3F1, males, in feed, site: liver, lesion: hepatocellular adenoma, dosed 104 weeks, study length 104 weeks) 54.8 mg/kg/day; (mouse, strain B6C3F1, males, in feed, site: liver, lesion: hepatocellular carcinoma, dosed 104 weeks, study length 104 weeks) 227 mg/kg/day; (mouse, strain B6C3F1, males, in feed, site: lung, lesion: alveolar/bronchiolar adenoma + alveolar/bronchiolar carcinoma, dosed 104 weeks, study length 104 weeks) 233 mg/kg/day and 265 mg/kg/day; (rat, strain Fischer 344, females, in feed, site: liver, lesion: hepatocellular adenoma + hepatoblastoma + hepatocellular carcinoma, dosed 104 weeks, study length 104 weeks) 520 mg/kg/day. In addition, the TD50 (rat, strain Fischer 344, males, in feed, site: liver, lesion: hepatocellular adenoma + hepatoblastoma + hepatocellular carcinoma, dosed 104 weeks, study length 104 weeks) turned out to be 11.8 mg/kg/day and the TD50 (rat, strain Fischer 344, males, in feed, site: liver, lesion: hepatocellular adenoma, dosed 104 weeks, study length 104 weeks) was 11.8 mg/kg/day. The carcinogen call (rat, strain Fischer 344, females, in feed, site: any site (literature study), lesion: several types, types named in the paper, dosed 104 weeks, study length 104 weeks) was “negative (inactive)”.

As to `O=C1OC(=O)c2ccccc21`, the carcinogen call under setting [1] was “negative (inactive)”; the carcinogen call under setting [2] was “negative (inactive)”; the carcinogen call (rat, strain Fischer 344, males, in feed, site: any site (literature study), lesion: several types, types named in the paper, dosed 105 weeks, study length 105 weeks) was “negative (inactive)”. In addition, the TD50 by setting is: (mouse, strain B6C3F1, males, in feed, site: liver, lesion: hepatocellular adenoma + hepatocellular carcinoma + neoplastic nodule, dosed 104 weeks, study length 104 weeks) 7460 mg/kg/day; (rat, strain Fischer 344, females, in feed, site: any site (literature study), lesion: several types, types named in the paper, dosed 105 weeks, study length 105 weeks) 4500 mg/kg/day; (rat, strain Fischer 344, females, in feed, site: lung, lesion: alveolar/bronchiolar adenoma, dosed 105 weeks, study length 105 weeks) 6230 mg/kg/day (inactive).

Take `Cc1ccc(S(=O)(=O)NC(=O)NN2CCCCCC2)cc1`: the carcinogen call by setting is: (mouse, strain B6C3F1, females, in feed, site: any site (literature study), lesion: several types, types named in the paper, dosed 103 weeks, study length 104 weeks) “negative (inactive)”; (mouse, strain B6C3F1, males, in feed, site: any site (literature study), lesion: several types, types named in the paper, dosed 103 weeks, study length 104 weeks) “negative (inactive)”; (rat, strain Fischer 344, females, in feed, site: any site (literature study), lesion: several types, types named in the paper, dosed 103 weeks, study length 105 weeks) “negative (inactive)”; (rat, strain Fischer 344, males, in feed, site: any site (literature study), lesion: several types, types named in the paper, dosed 103 weeks, study length 104 weeks) “negative (inactive)”. Besides, the TD50 (mouse, strain B6C3F1, males, in feed, site: lung, lesion: alveolar/bronchiolar adenoma + alveolar/bronchiolar carcinoma, dosed 103 weeks, study length 104 weeks) turned out to be 24600 mg/kg/day.

As for `C=C/C1=C/C(C)C(C)(OC(C)=O)C(=O)OCC2=CC[N+]3(C)CCC(OC1=O)C23O` (stereo not drawn), the TD50 (rat, strain ACI, both sexes, in drinking water, site: liver, lesion: hemangioendothelial sarcoma, dosed 48 weeks, study length 68 weeks) is 3.01 mg/kg/day; the TD50 (rat, strain ACI, both sexes, in drinking water, site: liver, lesion: neoplastic nodule, dosed 48 weeks, study length 68 weeks) is 0.697 mg/kg/day; the TD50 (rat, strain ACI, both sexes, in drinking water, site: liver, lesion: several types, types named in the paper, dosed 48 weeks, study length 68 weeks) was 0.5 mg/kg/day.

On to `CN(N=O)c1cccnc1`, for which the carcinogen call by setting is: (rat, strain BD VI, females, by gavage, site: any site (literature study), lesion: benign tumor, dosed 116 weeks, study length 116 weeks) “negative (inactive)”; (rat, strain BD VI, females, by gavage, site: any site (literature study), lesion: several types, types named in the paper, dosed 116 weeks, study length 116 weeks) “negative (inactive)”; (rat, strain BD VI, females, by gavage, site: liver, lesion: several types, types named in the paper, dosed 116 weeks, study length 116 weeks) “negative (inactive)”. The TD50 (rat, strain BD VI, females, by gavage, site: any site (literature study), lesion: malignant tumor, dosed 116 weeks, study length 116 weeks) was 6.09 mg/kg/day (inactive).

`O=S1OCCO1` registered a TD50 (mouse, strain Ha/ICR, females, i.p., site: lung, lesion: papillary tumor, dosed 64 weeks, study length 64 weeks) of 1.03 mg/kg/day.

In the case of `O=NC(=O)CCNCCO`, the TD50 by setting is: (hamster, strain Syrian Golden, females, by gavage, site: liver, lesion: cholangioadenoma/carcinoma, dosed 50 weeks, study length 65 weeks) 2.68 mg/kg/day; (hamster, strain Syrian Golden, females, by gavage, site: liver, lesion: cholangiocarcinoma, dosed 50 weeks, study length 65 weeks) 5.58 mg/kg/day; (hamster, strain Syrian Golden, females, by gavage, site: liver, lesion: hepatocellular adenoma, dosed 50 weeks, study length 65 weeks) 5.58 mg/kg/day; (hamster, strain Syrian Golden, females, by gavage, site: liver, lesion: hepatocellular carcinoma/adenoma, dosed 50 weeks, study length 65 weeks) 3.72 mg/kg/day; (hamster, strain Syrian Golden, females, by gavage, site: liver, lesion: several types, types named in the paper, dosed 50 weeks, study length 65 weeks) 0.997 mg/kg/day; (hamster, strain Syrian Golden, females, by gavage, site: lung, lesion: adenoma, dosed 50 weeks, study length 65 weeks) 31.3 mg/kg/day. In addition, the TD50 runs as follows: (hamster, strain Syrian Golden, females, by gavage, site: pancreatic duct, lesion: carcinoma, dosed 50 weeks, study length 65 weeks) 3.72 mg/kg/day; (hamster, strain Syrian Golden, females, by gavage, site: pancreatic duct, lesion: several types, types named in the paper, dosed 50 weeks, study length 65 weeks) 2.31 mg/kg/day; (rat, strain Fischer 344, females, in drinking water, site: liver, lesion: hepatocellular carcinoma, dosed 50 weeks, study length 120 weeks) 2.7 mg/kg/day; (rat, strain Fischer 344, females, in drinking water, site: liver, lesion: neoplastic nodule, dosed 50 weeks, study length 120 weeks) 2.7 mg/kg/day; (rat, strain Fischer 344, females, in drinking water, site: liver, lesion: several types, types named in the paper, dosed 50 weeks, study length 120 weeks) 1.8 mg/kg/day.
